Source: article PMC9046087, “Structural basis of tethered agonism of the adhesion GPCRs ADGRD1 and ADGRF1” (Nature, 2022)
Numbering of substitutions follows the chain as printed. Ends that are not written are not given here.

Experiments:
Format in all cases: cell-based
ADGRF1 [1] = biological target: T1, ADGRF1 (Homo sapiens, UniProt Q5T601, G807W); assay: BRET assay using TRUPATH biosensors, Gi activation of ADGRF1; conditions: ADGRF1 G807^6.56bW, n = 3
T1 construct: Flag (N); expressed in transfected cells; host or cells: HEK293F
Procedure: (§1) To study the synthetic stalk peptide-induced G protein activation of ADGRD1 and ADGRF1, a BRET assay using TRUPATH biosensors was conducted to measure the proximal interaction between RLuc8 fused to the Gα subunit and GFP2 fused to the Gγ subunit. The TRUPATH suite of biosensors was obtained from Addgene (Addgene kit no. 1000000163) as a gift from B. Roth, including GαsS-RLuc8, Gαi1-RLuc8, Gβ3 and Gγ9-GFP2 as previously described.
(§2) The wild-type or mutant ADGRD1 and ADGRF1 were transiently co-transfected with plasmids encoding Gα-RLuc8 (GαsS-RLuc8 for Gs activation assay; Gαi1-RLuc8 for Gi activation assay), Gβ3 and Gγ9-GFP2 at a ratio of 2:1:1:1 (receptor plasmid, 800 ng; G protein subunit plasmids, 400 ng for each) in 2 ml HEK293F cells at a density of 1.2 × 10^6 cells per ml. Cell cultivation and receptor surface expression measurement were performed as described above. The cells were plated into 96-well white plates (40,000 cells per well) in 60 μl of assay buffer and incubated at 37 °C for 30 min. Then 10 μl of freshly prepared 50 μM coelenterazine 400a (Nanolight Technologies) was added. […] The cells were stimulated with 30 μl of synthetic stalk peptide at different concentrations and the BRET signals were monitored continuously five times. The last measurements were used in data analysis. The BRET ratios were calculated as the ratio of the GFP2 emission to RLuc8 emission.

ADGRF1 [2] = biological target: T2, ADGRF1 (Homo sapiens, UniProt Q5T601, T810A); assay: as above; conditions: ADGRF1 T810^6.59bA
T2 construct: Flag (N); expressed in transfected cells; host or cells: HEK293F
Procedure: as §1, §2

ADGRF1 [3] = biological target: T3, ADGRF1 (Homo sapiens, UniProt Q5T601, Y668A); assay: as above; conditions: ADGRF1 Y668^3.40bA
T3 construct: Flag (N); expressed in transfected cells; host or cells: HEK293F
Procedure: as §1, §2

ADGRF1 [4] = biological target: T4, ADGRF1 (Homo sapiens, UniProt Q5T601, L769A); assay: BRET assay using TRUPATH biosensors, Gs activation of ADGRF1
T4 construct: Flag (N); expressed in transfected cells; host or cells: HEK293F
T4 sequence (Q5T601 20-910 L769A): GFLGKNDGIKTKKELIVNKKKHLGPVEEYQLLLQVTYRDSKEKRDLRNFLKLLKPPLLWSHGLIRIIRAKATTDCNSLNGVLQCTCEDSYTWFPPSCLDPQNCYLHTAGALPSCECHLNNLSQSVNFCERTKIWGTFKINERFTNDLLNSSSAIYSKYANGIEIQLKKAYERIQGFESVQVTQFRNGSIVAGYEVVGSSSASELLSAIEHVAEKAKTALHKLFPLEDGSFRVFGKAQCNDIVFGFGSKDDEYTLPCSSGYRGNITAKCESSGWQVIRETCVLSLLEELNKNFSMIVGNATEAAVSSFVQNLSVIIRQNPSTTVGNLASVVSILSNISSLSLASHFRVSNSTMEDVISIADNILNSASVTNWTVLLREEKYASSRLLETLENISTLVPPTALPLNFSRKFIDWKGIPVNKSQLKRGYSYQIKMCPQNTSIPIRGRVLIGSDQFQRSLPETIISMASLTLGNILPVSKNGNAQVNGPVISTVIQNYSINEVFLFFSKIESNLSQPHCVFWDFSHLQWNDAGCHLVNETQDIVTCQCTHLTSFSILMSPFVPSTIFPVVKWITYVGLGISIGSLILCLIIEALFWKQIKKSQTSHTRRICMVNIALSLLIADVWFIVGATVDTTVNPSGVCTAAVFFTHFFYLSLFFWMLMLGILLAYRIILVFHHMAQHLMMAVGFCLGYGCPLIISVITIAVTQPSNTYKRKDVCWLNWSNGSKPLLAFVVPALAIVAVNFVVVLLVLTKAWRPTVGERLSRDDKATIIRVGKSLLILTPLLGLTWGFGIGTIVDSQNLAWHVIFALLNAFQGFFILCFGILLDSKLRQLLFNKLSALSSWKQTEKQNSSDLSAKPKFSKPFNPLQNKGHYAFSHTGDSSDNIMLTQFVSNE
Procedure: as §1, §2

ADGRF1 [5] = biological target: T5, ADGRF1 (Homo sapiens, UniProt Q5T601, R788A); assay: as above; conditions: Gs, ADGRF1 R788^6.37bA, n = 3
T5 construct: Flag (N); expressed in transfected cells; host or cells: HEK293F
Procedure: as §1, §2

ADGRF1 [6] = biological target: T6, ADGRF1 (Homo sapiens, UniProt Q5T601, V689A); assay: as above; conditions: Gs, ADGRF1 V689^ICL2A, n = 3
T6 construct: Flag (N); expressed in transfected cells; host or cells: HEK293F
T6 sequence (Q5T601 20-910 V689A): T4 sequence (Q5T601 20-910 L769A) with V670A, A750L
Procedure: as §1, §2

[7] = n = 3, read-out: pEC50 (mean ± s.e.m.) (converted)
[8] = read-out: pEC50 (mean ± s.e.m.) (converted)

T2 sequence (Q5T601 20-910 T810A): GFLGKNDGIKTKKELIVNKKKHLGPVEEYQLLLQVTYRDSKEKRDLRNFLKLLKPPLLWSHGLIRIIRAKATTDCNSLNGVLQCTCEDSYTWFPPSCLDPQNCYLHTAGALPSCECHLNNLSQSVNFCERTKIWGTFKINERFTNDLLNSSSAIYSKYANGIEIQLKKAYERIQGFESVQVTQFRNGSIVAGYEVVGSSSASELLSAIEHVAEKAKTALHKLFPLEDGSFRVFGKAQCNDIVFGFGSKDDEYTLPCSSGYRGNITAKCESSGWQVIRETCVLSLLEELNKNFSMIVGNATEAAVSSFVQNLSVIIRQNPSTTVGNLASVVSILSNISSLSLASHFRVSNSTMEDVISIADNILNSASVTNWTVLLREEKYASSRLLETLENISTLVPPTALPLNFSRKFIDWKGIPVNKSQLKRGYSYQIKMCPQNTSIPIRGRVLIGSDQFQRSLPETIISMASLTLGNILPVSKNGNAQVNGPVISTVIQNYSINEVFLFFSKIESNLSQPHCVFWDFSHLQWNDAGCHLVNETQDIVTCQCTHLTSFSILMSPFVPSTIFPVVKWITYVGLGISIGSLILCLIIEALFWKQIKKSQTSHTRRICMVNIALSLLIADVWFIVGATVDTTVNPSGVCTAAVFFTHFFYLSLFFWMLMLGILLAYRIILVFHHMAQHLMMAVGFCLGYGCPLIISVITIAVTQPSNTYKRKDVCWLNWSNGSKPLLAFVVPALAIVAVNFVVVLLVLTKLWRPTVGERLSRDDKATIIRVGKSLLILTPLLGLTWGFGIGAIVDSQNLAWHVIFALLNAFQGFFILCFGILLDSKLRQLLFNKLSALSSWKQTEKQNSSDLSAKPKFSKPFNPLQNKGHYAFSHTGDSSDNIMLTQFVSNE
T5 sequence (Q5T601 20-910 R788A): as the sequence (Q5T601 20-910 T810A) above, with R769A, A791T counted along it
T1 sequence (Q5T601 20-910 G807W): as the sequence (Q5T601 20-910 T810A) above, with G788W, A791T counted along it
T3 sequence (Q5T601 20-910 Y668A): as the sequence (Q5T601 20-910 T810A) above, with Y649A, A791T counted along it

Sequence: TSFSILMSPFVP [pF1]
- EC50 (ADGRF1 [1]): 1520 nM
- Emax (mean ± s.e.m.) (ADGRF1 [1]): 101 ± 13 % of WT
- Emax (mean ± s.e.m.) (ADGRF1 [2]; n = 3): 81 ± 12 % of WT
- EC50 (ADGRF1 [2]; [7]): 562 nM
- Emax (mean ± s.e.m.) (ADGRF1 [3]; n = 3): 123 ± 17 % of WT
- EC50 (ADGRF1 [3]; [7]): 355 nM
- Emax (mean ± s.e.m.) (ADGRF1 [4]; Gs, ADGRF1 L769^5.61bA, n = 3): 73 ± 11 % of WT
- EC50 (ADGRF1 [4]; [8]): 151 nM
- Emax (mean ± s.e.m.) (ADGRF1 [5]): 112 ± 15 % of WT
- EC50 (ADGRF1 [5]; [8]): 933 nM
- Emax (mean ± s.e.m.) (ADGRF1 [6]): 77 ± 10 % of WT
- EC50 (ADGRF1 [6]; [8]): 204 nM
